Reference: patent publication US11617726B2, “Method for preventing, treating, or ameliorating a microbial infection” (priority 2018, dated 2023)
Converted amounts (≈) assume the structure as drawn. Read-outs that look alike come from different tables or passages of the source.

How the values were obtained:
[1] = tested on: Acinetobacter baumannii isolates and Acinetobacter baumannii ATCC BAA 747; experiment: MIC determination by broth dilution method (CLSI M07-A9); format: cell-based; conditions: Acinetobacter baumannii
Procedure: (§1) Minimum Inhibitory Concentration (MIC) is the lowest concentration of an antimicrobial agent that prevents visible growth of a microorganism in an agar or broth dilution susceptibility test. MIC of thymoquinone was determined by the broth dilution method against 33 MDR Acinetobacter baumannii strains and standard sensitive culture collection strain of Acinetobacter baumannii and Pseudomonas aeruginosa. The MIC of gentamicin was deter lined by broth dilution method against six MDR Acinetobacter baumannii strains and standard sensitive culture collection strains of Acinetobacter baumannii and Pseudomonas aeruginosa. MIC testing was performed according to the recommendations and guidelines of Clinical Laboratory Standard Institutes (CLSI M07-A9; 2012). Clinical and Laboratory Standards Institute (CLSI), “Methods for Dilution Antimicrobial Susceptibility Tests for Bacteria That Grow Aerobically; Approved Standard,” Document M07-A9, Clinical and Laboratory Standards Institute (CLSI), Wayne, Pa., USA, 2012.
(§2) Twenty-one grams of Mueller-Hinton Broth (MHB) was suspended in 1 Liter distilled water and then boiled to dissolve the powder completely. The medium was sterilized by autoclaving at 121° C. for 15 min. After autoclaving, the medium was cooled to room temperature before use or stored in the fridge until used.
(§3) Thymoquinone was weighed and dissolved in Dimethyl sulfoxide (DMSO) to produce a thymoquinone stock solution with a concentration of 5,120 μg/ml. Gentamicin sulfate was weighed and dissolved in water to produce a gentamicin sulfate stock solution with a concentration of 5,120 μg/ml, equivalent to gentamicin base.
(§4) Dilutions of thymoquinone and gentamicin sulfate stock solutions were prepared volumetrically in the MHB as follows:
(§5) One mL of original stock solution (5,120 μg/ml) was added to 9 ml sterile MHB to give the working first dilution (512 μg/mL). 12 sterile 7 mL PJ tubes were arranged in a rack in a row. Each tube contained one mL sterile MHB. Ten tubes were labeled as 128 μg/mL, 64 μg/mL, 32 μg/mL, 16 μg/mL, 8 μg/mL, 4 μg/mL, 2 μg/mL, 1 μg/mL, 0.5 μg/mL and 0.25 μg/mL. The eleventh and twelfth tubes were labeled as positive and negative control, respectively.
(§6) The working dilution (512 μg/mL) was serially diluted to give two-fold dilutions. One mL of the working dilution (512 μg/mL) was dispensed in the first tube (labeled as 128 μg/mL) to give a concentration of 256 μg drug/mL MHB. One mL of the first tube was added to the second tube (labeled as 64 μg/mL) to give a concentration of 128 μg drug/mL MHB. One mL of the second tube was transferred to the third tube (labeled as 32 μg/mL) to give a concentration of 64 μg drug/mL MHB. One mL of the third tube was added to the fourth tube (labeled as 16 μg/mL) to give a concentration of 32 μg drug/mL MHB. One mL of the fourth tube was dispensed in the fifth tube (labeled as 8 μg/mL) to give a concentration of 16 μg drug/mL MHB. One mL of the fifth tube was dispensed in the sixth tube (labeled as 4 μg/mL) to give a concentration of 8 μg drug/mL MHB. One mL of the sixth tube was added to the seventh tube (labeled as 2 μg/mL) to give a concentration of 4 μg drug/mL MHB. One mL of the seventh tube was added to the eighth tube (labeled as 1 μg/mL) to give a concentration of 2 μg drug/mL MHB. One mL of the eighth tube was transferred to the ninth tube (labeled as 0.5 μg/mL) to give a concentration of 1 μg drug/mL MHB. One mL of the ninth tube was transferred to the tenth tube (labeled as 0.25 μg/mL) to give a concentration of 0.5 μg drug/mL MHB. The contents were mixed thoroughly by pipetting up and down three times. One mL of the content of the tenth tube was discarded.
(§7) The inoculum suspensions (at 1-2×10^8 CFU/mL) were diluted 1:100 in MHB to obtain 1×10^6 CFU/mL. One mL of the diluted inoculum suspension (1×10^6 CFU/mL) was transferred to each tube except tube 12.
(§8) All inoculated tubes were incubated for 16-20 hours at 37° C. aerobically. […]

[2] = tested on: Pseudomonas aeruginosa ATCC 27853; experiment: as above; format: cell-based; conditions: Pseudomonas aeruginosa, ATCC27853, P. aeruginosa ATCC 27853, read-out: MIC
Procedure: as §1, §2, §3, §4, §5, §6, §7, §8

## CC1=CC(=O)C(C(C)C)=CC1=O [Thymoquinone, 2-isopropyl-5-methylbenzo-1,4-quinone]
[1]; BAA747, A. baumannii ATCC BAA 747 (standard sensitive strain), read-out: MIC
  MIC: 32 µg/mL (≈ 195 µM)
[1]; BAA747, isolate AB1, read-out: MIC
  MIC: 32 µg/mL (≈ 195 µM)
[1]; BAA747, isolate AB2, read-out: MIC
  MIC: 32 µg/mL (≈ 195 µM)
[1]; BAA747, isolate AB3, read-out: MIC
  MIC: 32 µg/mL (≈ 195 µM)
[1]; BAA747, isolate AB4, read-out: MIC
  MIC: 32 µg/mL (≈ 195 µM)
[1]; BAA747, isolate AB5, read-out: MIC
  MIC: 32 µg/mL (≈ 195 µM)
[1]; BAA747, isolate AB6, read-out: MIC
  MIC: 64 µg/mL (≈ 390 µM)
[1]; BAA747, isolate AB7, read-out: MIC
  MIC: 32 µg/mL (≈ 195 µM)
[1]; BAA747, isolate AB8, read-out: MIC
  MIC: 32 µg/mL (≈ 195 µM)
[1]; BAA747, isolate AB9, read-out: MIC
  MIC: 32 µg/mL (≈ 195 µM)
[1]; BAA747, isolate AB10, read-out: MIC
  MIC: 16 µg/mL (≈ 97.4 µM)
[1]; BAA747, isolate AB11, read-out: MIC
  MIC: 32 µg/mL (≈ 195 µM)
[1]; BAA747, isolate AB12, read-out: MIC
  MIC: 32 µg/mL (≈ 195 µM)
[1]; BAA747, isolate AB13, read-out: MIC
  MIC: 32 µg/mL (≈ 195 µM)
[1]; BAA747, isolate AB14, read-out: MIC
  MIC: 32 µg/mL (≈ 195 µM)
[1]; BAA747, isolate AB15, read-out: MIC
  MIC: 32 µg/mL (≈ 195 µM)
[1]; BAA747, isolate AB16, read-out: MIC
  MIC: 64 µg/mL (≈ 390 µM)
[1]; BAA747, isolate AB17, read-out: MIC
  MIC: 64 µg/mL (≈ 390 µM)
[1]; BAA747, isolate AB18, read-out: MIC
  MIC: 32 µg/mL (≈ 195 µM)
[1]; BAA747, isolate AB19, read-out: MIC
  MIC: 64 µg/mL (≈ 390 µM)
[1]; BAA747, isolate AB20, read-out: MIC
  MIC: 64 µg/mL (≈ 390 µM)
[1]; BAA747, isolate AB21, read-out: MIC
  MIC: 32 µg/mL (≈ 195 µM)
[1]; BAA747, isolate AB22, read-out: MIC
  MIC: 64 µg/mL (≈ 390 µM)
[1]; BAA747, isolate AB23, read-out: MIC
  MIC: 32 µg/mL (≈ 195 µM)
[1]; BAA747, isolate AB24, read-out: MIC
  MIC: 32 µg/mL (≈ 195 µM)
[1]; BAA747, isolate AB25, read-out: MIC
  MIC: 32 µg/mL (≈ 195 µM)
[1]; BAA747, isolate AB26, read-out: MIC
  MIC: 64 µg/mL (≈ 390 µM)
[1]; BAA747, isolate AB27, read-out: MIC
  MIC: 64 µg/mL (≈ 390 µM)
[1]; BAA747, isolate AB28, read-out: MIC
  MIC: 64 µg/mL (≈ 390 µM)
[1]; BAA747, isolate AB29, read-out: MIC
  MIC: 64 µg/mL (≈ 390 µM)
[1]; BAA747, isolate AB30, read-out: MIC
  MIC: 32 µg/mL (≈ 195 µM)
[1]; BAA747, isolate AB31, read-out: MIC
  MIC: 32 µg/mL (≈ 195 µM)
[1]; BAA747, isolate AB32, read-out: MIC
  MIC: 32 µg/mL (≈ 195 µM)
[1]; BAA747, isolate AB33, read-out: MIC
  MIC: 32 µg/mL (≈ 195 µM)
[2]
  MIC: 64 µg/mL (≈ 390 µM)
